Reference: ChEMBL document CHEMBL1130364, “3-Amino-1,2-benzisoxazoles: A new family of potent inhibitors of LTB4 binding to the human neutrophils” (Bioorg Med Chem Lett, 1997)

Key:
[1] = molecular target: Leukotriene B4 receptor 1 (Homo sapiens) (UniProt Q15722); assay: The compound was tested for inhibition of [3H]-LTB4 binding to Leukotriene B4 (LTB4) receptor on the human neutrophils (PMN) at concentration of 10 nM
[2] = molecular target: Leukotriene B4 receptor 1 (Homo sapiens) (UniProt Q15722); assay: The compound was tested for inhibition of [3H]LTB4 binding to Leukotriene B4 (LTB4) receptor on the human neutrophils (PMN) at concentration of 100 nM
[3] = molecular target: Leukotriene B4 receptor 1 (Homo sapiens) (UniProt Q15722); assay: The compound was tested for inhibition of [3H]LTB4 binding to Leukotriene B4 (LTB4) receptor on the human neutrophils (PMN) at concentration of 1 uM

Leukotriene B4 receptor 1 (Homo sapiens), sequence (Q15722 whole entry): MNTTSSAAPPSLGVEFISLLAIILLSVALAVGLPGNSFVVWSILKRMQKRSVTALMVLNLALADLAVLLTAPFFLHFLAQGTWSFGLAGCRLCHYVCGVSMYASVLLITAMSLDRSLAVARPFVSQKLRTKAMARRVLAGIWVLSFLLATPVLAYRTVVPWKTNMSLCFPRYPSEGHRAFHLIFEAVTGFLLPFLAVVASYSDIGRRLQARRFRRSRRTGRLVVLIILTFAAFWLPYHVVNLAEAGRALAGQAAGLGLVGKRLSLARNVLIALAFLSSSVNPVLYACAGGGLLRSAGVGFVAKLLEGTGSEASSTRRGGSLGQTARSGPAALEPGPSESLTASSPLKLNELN

Row | inhibition [1] [%] | inhibition [2] [%] | inhibition [3] [%] | Structure (SMILES)
1 | < 10 | 10 | 90 | COc1cc(C(=O)N(C(C)C)C(C)C)ccc1OCCCCCOc1ccc2c(N)noc2c1
2 | < 10 | 37 | 92 | COc1cc(C(=O)N(C(C)C)C(C)C)ccc1OCCCOc1ccc2c(N)noc2c1
3 | 64 | 95 | 99 | COc1cc(C(=O)N(C(C)C)C(C)C)ccc1OCCCCOc1ccc2c(N)noc2c1
